Assay results: patent US20260259194A1, “METHOD OF MONITORING MESENCHIMAL STEM CELL (MSC) POTENCY AND IMPROVING MSC DIFFERENTIATION POTENTIAL” (AGENCY FOR SCIENCE, TECHNOLOGY AND RESEARCH, priority 2022, published 2026)

Columns and labels:
Assay type in all cases: cell-based, human
MSCs [1] = assay: CFU-F (colony formation) of MSCs; conditions: compared with DMSO control
Procedure: (§1) To validate the effects of HOXA9 knockdown on MSCs, effects of HOXA9 specific inhibitor DB818 on MSCs were determined.

MSCs [2] = assay: MSC proliferation with HOXA9 inhibitor; conditions: compared with DMSO control
Procedure: as §1

MSCs [3] = assay: Three-lineage differentiation of MSCs, staining (oil red, AP, alcian blue); conditions: compared with DMSO control
From the text: (§2) Differentiation potential is the most important property of MSCs. To determine the effects of HOXA9 knockdown on the differentiation potential of MSCs into three lineages, HOXA9 knockdown and scrambled MSCs were induced into three lineages of differentiation. Compared with scrambled control, HOXA9 knockdown decreased oil red stain for oil droplet in adipogenesis, AP stain for alkaline phosphatase in osteogenesis and alcian blue stain for proteoglycan in chondrogenesis [FIG. 6a]. Stain data were validated by qPCR for lineage specific genes, compared with scrambled control, HOXA9 knockdown decreased adipogenenic genes (CEBPα, PPARγ, LPL and αP2), osteogenic genes (OC, OPN and ALP) and chondrogenic genes (COL2A1, AGC1, SOX9 and COL10A1) [FIG. 6b]. AP assay for quantifying alkaline phosphatase activity was consistent with AP stain, HOXA9 knockdown decreased alkaline phosphatase activity [FIG. 6b].
as §1

MSCs [4] = assay: qPCR for lineage specific genes in differentiated MSCs; conditions: compared with control
From the text: as §2, §1

- AP stain for alkaline phosphatase in osteogenesis (MSCs [3]; osteogenesis): decreased
Compound: N=C(N)c1ccc(-c2ccc(-c3nc4ccc(C(=N)N)cc4[nH]3)s2)cc1 [DB818]
- CFU-F (MSCs [1]): abolished
- MSC proliferation (MSCs [2]): abolished
- oil red stain for oil droplet in adipogenesis (MSCs [3]; adipogenesis): decreased
- alcian blue stain for proteoglycan in chondrogenesis (MSCs [3]; chondrogenesis): decreased
- adipogenenic genes (CEBPα, PPARγ, LPL and αP2) (MSCs [4]): decreased
- chondrogenic genes (COL2A1, AGC1, SOX9 and COL10A1) (MSCs [4]): decreased
- osteogenic genes (RUNX2 and COL1A1) (MSCs [4]): decreased
